Results taken from ChEMBL document CHEMBL5346956, “Opportunities and Challenges for Inhibitors Targeting Citrate Transport and Metabolism in Drug Discovery” (J Med Chem, 2023).
Blank lines part the entries; values can stand above or below the compound they belong to.

Key:
[1] = biological target: T1, Tricarboxylate transport protein, mitochondrial (Homo sapiens, UniProt P53007); assay: Inhibition of SLC25A1 (unknown origin) at 1 uM relative to control
Target sequence in this assay (P53007 14-311 limits assumed): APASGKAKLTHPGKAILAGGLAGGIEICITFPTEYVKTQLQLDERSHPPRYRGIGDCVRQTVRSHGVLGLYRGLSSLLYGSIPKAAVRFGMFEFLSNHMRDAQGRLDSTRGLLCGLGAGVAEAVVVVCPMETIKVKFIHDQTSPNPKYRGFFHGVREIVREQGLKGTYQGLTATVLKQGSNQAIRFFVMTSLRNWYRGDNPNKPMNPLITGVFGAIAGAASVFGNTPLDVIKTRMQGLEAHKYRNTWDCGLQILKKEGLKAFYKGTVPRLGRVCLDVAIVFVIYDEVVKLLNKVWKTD

HeLa = assay: Antiproliferative activity against human HeLa cells assessed as inhibition of cell growth measured after 24 hrs; assay type: functional, cell-based
ATP-citrate synthase [2] = biological target: T2, ATP-citrate synthase (Homo sapiens, UniProt P53396); assay: Binding affinity to ACLY (unknown origin) assessed as inhibition constant
T2 sequence (P53396 whole entry): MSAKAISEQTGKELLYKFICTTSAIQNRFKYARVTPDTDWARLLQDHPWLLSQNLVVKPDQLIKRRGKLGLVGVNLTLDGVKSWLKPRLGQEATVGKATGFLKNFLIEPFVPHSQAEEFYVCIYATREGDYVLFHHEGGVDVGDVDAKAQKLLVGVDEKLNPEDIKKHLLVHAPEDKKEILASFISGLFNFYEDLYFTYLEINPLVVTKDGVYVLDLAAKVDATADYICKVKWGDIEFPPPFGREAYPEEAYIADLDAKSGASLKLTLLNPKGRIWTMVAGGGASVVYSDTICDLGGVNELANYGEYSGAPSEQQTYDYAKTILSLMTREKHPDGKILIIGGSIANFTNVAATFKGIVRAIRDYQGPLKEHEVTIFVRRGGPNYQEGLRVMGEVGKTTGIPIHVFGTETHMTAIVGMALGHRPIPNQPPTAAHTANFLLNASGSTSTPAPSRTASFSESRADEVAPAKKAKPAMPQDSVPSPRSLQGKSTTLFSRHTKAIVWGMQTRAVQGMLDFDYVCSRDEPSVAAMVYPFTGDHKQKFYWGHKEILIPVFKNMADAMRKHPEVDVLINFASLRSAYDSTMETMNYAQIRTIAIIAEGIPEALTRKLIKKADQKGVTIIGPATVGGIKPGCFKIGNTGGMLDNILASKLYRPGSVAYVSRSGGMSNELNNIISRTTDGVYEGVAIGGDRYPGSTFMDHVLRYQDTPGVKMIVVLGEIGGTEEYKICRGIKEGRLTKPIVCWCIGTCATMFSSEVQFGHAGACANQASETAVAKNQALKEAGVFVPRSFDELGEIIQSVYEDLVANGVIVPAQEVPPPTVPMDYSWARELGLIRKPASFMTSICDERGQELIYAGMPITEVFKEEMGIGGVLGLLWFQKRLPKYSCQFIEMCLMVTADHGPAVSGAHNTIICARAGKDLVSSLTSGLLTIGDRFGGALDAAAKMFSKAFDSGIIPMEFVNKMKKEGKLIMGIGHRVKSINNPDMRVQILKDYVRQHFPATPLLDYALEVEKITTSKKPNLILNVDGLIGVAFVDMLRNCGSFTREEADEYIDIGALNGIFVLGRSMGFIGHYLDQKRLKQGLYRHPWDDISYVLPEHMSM

in vitro = details: human, liver microsomes
[3] = Metabolic stability in rat liver microsomes assessed as half life; assay type: ADME, Microsome
ATP-citrate synthase [4] = biological target: T2, ATP-citrate synthase
ATP-citrate synthase [5] = biological target: T2, ATP-citrate synthase; remark: listed apart in the source
ATP-citrate synthase [6] = biological target: T3, ATP-citrate synthase (Rattus norvegicus, UniProt P16638); assay: Binding affinity to rat ACLY assessed as inhibition constant measured after 20 mins
T3 sequence (P16638 whole entry): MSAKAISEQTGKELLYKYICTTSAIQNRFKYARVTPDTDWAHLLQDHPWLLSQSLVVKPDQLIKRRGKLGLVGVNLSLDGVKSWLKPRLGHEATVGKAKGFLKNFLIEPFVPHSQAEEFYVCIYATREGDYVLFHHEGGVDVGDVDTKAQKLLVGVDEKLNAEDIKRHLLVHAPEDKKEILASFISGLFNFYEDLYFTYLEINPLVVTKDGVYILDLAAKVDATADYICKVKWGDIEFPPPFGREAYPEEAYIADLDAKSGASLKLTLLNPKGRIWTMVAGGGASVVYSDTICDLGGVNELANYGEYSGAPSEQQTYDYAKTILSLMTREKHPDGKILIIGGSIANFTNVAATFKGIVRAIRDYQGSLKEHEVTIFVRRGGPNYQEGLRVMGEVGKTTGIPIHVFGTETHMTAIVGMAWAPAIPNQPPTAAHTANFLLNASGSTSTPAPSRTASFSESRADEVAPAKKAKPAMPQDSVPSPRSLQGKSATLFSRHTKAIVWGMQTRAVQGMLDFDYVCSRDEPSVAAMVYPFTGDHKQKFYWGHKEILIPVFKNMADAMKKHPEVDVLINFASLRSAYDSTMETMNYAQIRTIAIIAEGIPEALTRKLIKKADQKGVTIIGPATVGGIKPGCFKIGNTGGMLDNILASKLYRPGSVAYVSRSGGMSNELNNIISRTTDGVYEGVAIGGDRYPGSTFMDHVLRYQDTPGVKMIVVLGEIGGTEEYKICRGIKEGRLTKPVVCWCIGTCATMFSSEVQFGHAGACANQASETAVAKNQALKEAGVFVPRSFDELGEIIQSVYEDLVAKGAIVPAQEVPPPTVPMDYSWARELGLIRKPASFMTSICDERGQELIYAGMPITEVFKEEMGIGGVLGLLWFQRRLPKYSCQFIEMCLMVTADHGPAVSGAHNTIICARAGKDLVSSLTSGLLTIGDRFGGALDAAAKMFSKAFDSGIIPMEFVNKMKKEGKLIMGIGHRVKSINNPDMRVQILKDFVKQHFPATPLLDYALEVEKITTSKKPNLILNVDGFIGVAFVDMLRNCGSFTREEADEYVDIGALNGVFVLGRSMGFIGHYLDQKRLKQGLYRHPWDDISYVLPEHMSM

[7] = biological target: T1, Tricarboxylate transport protein, mitochondrial; assay: Binding affinity to human SLC25A1 assessed as inhibition constant
Target sequence in this assay (P53007 whole entry): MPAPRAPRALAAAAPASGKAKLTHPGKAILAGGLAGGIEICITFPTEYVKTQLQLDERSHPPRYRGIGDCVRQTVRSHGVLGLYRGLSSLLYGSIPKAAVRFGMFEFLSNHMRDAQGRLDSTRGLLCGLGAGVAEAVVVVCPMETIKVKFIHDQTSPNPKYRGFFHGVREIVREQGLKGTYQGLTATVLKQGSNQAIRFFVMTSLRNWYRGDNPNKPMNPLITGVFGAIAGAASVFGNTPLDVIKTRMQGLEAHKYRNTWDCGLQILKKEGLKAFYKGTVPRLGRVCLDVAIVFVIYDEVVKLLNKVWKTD

[8] = biological target: T1, Tricarboxylate transport protein, mitochondrial; assay: Inhibition of human SLC25A1 at 1 uM relative to control
Target sequence in this assay (P53007 14-311 limits assumed): as the sequence (P53007 14-311 limits assumed) above

ATP-citrate synthase [9] = biological target: T2, ATP-citrate synthase; remark: listed apart in the source
[10] = biological target: Na(+)/citrate cotransporter (Homo sapiens, UniProt Q86YT5); assay: Inhibition of recombinant human SLC13A5 in HEK293T cells; assay type: cell-based
[11] = biological target: T4, Na(+)/dicarboxylate cotransporter 3 (Homo sapiens, UniProt Q8WWT9); assay: Inhibition of human SLC13A3 in HepG2 cells by measuring […] uptake; assay type: cell-based
T4 sequence (Q8WWT9 whole entry): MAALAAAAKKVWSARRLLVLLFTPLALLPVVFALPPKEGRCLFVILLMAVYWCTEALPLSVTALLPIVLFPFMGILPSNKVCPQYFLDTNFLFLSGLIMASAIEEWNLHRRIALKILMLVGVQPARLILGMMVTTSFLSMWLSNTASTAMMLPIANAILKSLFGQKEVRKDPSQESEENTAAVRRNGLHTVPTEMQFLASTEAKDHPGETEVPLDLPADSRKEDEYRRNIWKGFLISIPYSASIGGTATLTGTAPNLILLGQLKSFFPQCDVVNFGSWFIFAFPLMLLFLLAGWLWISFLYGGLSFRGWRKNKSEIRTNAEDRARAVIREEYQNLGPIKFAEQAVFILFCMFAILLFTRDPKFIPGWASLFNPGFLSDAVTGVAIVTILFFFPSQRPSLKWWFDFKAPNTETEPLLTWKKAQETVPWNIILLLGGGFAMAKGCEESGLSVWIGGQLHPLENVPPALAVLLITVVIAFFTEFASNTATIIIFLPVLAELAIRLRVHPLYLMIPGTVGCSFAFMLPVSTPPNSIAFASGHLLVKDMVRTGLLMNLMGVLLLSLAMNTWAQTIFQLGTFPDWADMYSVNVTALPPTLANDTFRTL

[12] = Inhibition of mouse mINDY in HEK293 cells; assay type: cell-based

Sequence of Na(+)/citrate cotransporter (Q86YT5 whole entry): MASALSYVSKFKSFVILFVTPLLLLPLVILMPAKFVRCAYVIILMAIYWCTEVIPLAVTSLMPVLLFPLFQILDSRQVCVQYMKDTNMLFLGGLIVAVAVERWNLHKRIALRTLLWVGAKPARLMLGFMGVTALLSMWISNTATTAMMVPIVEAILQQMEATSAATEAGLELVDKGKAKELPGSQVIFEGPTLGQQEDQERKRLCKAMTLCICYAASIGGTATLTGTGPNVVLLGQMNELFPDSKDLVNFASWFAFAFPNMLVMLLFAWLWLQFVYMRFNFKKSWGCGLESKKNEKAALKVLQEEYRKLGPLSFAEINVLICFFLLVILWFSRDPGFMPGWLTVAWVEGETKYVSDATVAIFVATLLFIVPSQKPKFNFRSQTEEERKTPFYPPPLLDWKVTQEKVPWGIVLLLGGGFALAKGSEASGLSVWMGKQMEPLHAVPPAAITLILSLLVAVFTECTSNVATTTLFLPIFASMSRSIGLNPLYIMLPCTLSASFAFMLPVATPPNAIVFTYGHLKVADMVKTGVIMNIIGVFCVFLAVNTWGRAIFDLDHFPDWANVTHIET

SMILES: O=C(O)c1cccc(C(=O)O)c1C(=O)O
inhibition [1]: 95%

SMILES: C[C@@H]1C[C@H]2O[C@@H]2/C=C\C=C\C(=O)Cc2c(Cl)c(O)cc(O)c2C(=O)O1 [RADICICOL]
Ki (ATP-citrate synthase [2]): 13 µM

SMILES: [2H]C(O)(CCCCCC(C(=O)O)(C([2H])([2H])[2H])C([2H])([2H])[2H])CCCCCC(C(=O)O)(C([2H])([2H])[2H])C([2H])([2H])[2H]
half-life [3]: > 2.42 h

SMILES: O=C(O)C[C@](O)(C[C@H](O)CCCCCCc1ccc(Cl)cc1Cl)C(=O)O
Ki (ATP-citrate synthase [2]): 1 µM

SMILES: COC(=O)c1cc(Cl)c(O)c(S(=O)(=O)Nc2cc(-c3ccccc3)c(F)cc2F)c1
Kd (ATP-citrate synthase [4]): 0.0022 µM
half-life (in vitro): 0.056 h
Ki (ATP-citrate synthase [2]): 0.007 µM
IC50 (ATP-citrate synthase [5]): 0.0021 µM

SMILES: [2H]C([2H])(CCCCC(C)(C)C(=O)O)C(O)C([2H])([2H])CCCCC(C)(C)C(=O)O
half-life [3]: > 2.42 h

SMILES: O=C(O)c1ccc(Cl)c(S(=O)(=O)Nc2cccc([N+](=O)[O-])c2)c1
Ki [7]: 48 µM
inhibition [1]: 84.7%
inhibition [8]: 84.7%

SMILES: O=C(O)CC(O)(CC(=O)CCCCCCc1ccc(Cl)cc1Cl)C(=O)O (stereo unspecified)
Ki (ATP-citrate synthase [2]): 1.2 µM

SMILES: O=C(Nc1cc(Cl)cc(C(F)(F)F)c1)OCCC(F)(F)F
IC50 [12]: 0.18 µM
IC50 [11]: 0.16 µM

Further lines, results first:

IC50 (HeLa): 0.5 µM
SMILES: O=c1c(O)c(-c2ccc(O)cc2)oc2c(O)c(O)cc(O)c12 [HERBACETIN]

Ki (ATP-citrate synthase [2]): 1.2 µM
SMILES: O=C(O)CC(O)(CCCCCCCCc1ccc(Cl)cc1Cl)C(=O)O (stereo unspecified)

half-life (in vitro): 8.85 h
SMILES: O=C1NCc2ccccc2-c2cc(c(F)cc2F)NS(=O)(=O)c2cc1cc(Cl)c2O

Ki (ATP-citrate synthase [6]): 1 µM
SMILES: O=C(O)C[C@@]1(O)C[C@@H](Cc2ccc(Cl)cc2Cl)OC1=O

half-life [3]: > 2.42 h
SMILES: [2H]C([2H])(CCCCC(C)(C)C(=O)O)C([2H])(O)C([2H])([2H])CCCCC(C)(C)C(=O)O

Ki (ATP-citrate synthase [2]): 1.2 µM
SMILES: O=C(O)CC(CSCCCCCCc1ccc(Cl)cc1Cl)C(=O)O (stereo unspecified)

IC50 (ATP-citrate synthase [9]): 5.31 µM
SMILES: CC(C)(CCCC/C=C/CCCCCC(C)(C)C(=O)O)C(=O)O

IC50 [10]: < 0.05 µM
IC50 [11]: < 0.05 µM
SMILES: Cc1nc(OC(F)F)ccc1C(C)N1CCc2c(C#N)c(Cl)nc(NCC#N)c2C1 (stereo unspecified)

half-life [3]: > 2.42 h
SMILES: [2H]C(O)(CCCCCC(C)(C)C(=O)O)CCCCCC(C)(C)C(=O)O

Ki (ATP-citrate synthase [2]): 1.2 µM
SMILES: O=C(O)CC(O)(CSCCCCCCc1ccc(Cl)cc1Cl)C(=O)O (stereo unspecified)
